BindingDB's records for doi:10.1016/j.ejmech.2018.08.073 (Indian Csir-Central Drug Research Institute, 2018)

Biological target: T1, Histone deacetylase 6 (Homo sapiens, UniProt Q9UBN7)
T1 sequence (Q9UBN7 whole entry): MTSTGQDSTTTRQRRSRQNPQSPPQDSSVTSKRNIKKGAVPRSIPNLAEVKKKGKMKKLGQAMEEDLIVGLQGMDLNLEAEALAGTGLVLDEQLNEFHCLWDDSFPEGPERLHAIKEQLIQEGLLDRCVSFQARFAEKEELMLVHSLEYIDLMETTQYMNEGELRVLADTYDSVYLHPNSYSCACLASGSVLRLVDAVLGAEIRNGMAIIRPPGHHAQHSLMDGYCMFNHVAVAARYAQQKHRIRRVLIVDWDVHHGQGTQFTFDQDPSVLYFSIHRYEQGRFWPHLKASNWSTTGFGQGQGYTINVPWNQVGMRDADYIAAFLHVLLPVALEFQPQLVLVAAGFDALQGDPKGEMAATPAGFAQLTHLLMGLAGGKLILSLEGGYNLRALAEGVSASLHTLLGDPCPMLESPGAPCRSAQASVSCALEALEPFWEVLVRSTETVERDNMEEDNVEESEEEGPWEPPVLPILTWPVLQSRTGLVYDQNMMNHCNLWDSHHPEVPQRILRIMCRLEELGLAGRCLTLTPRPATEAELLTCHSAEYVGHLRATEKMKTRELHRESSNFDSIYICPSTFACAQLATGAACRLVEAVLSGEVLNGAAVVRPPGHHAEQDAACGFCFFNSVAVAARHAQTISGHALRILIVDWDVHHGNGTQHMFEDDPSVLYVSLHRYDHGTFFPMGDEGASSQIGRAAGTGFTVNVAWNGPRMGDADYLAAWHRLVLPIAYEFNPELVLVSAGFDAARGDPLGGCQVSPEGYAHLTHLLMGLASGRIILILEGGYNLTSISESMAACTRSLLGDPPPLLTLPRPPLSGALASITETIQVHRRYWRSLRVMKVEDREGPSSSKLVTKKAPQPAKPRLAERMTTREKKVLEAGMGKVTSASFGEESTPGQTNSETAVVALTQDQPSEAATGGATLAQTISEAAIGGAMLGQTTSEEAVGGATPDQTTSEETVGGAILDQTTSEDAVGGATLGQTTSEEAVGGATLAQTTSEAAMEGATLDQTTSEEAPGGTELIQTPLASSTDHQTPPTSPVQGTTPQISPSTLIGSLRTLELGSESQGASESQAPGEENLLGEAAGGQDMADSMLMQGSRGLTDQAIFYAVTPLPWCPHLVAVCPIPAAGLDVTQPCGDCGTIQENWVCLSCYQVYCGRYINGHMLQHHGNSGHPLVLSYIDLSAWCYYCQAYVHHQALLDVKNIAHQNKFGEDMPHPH
Test: Inhibition of recombinant full-length human N-terminal GST-tagged HDAC6 expressed in baculovirus infected Sf9 insect cells using fluorescent-labelled Arg-His-Lys-Lys(Ac) as substrate measured after 2 hrs by fluorescence assay

SMILES: Cc1c(CN)c2ccccc2n1-c1ccc(C(=O)NO)cc1
- IC50: 1.5 nM
